Data published in patent US6433165B1, “Chemokine receptor antagonists and methods of use therefor” (Millennium Pharmaceuticals, Inc., priority 1998, dated 2002).

Molecular target: T1, RANTES / MIP-1α binding to THP-1 cell membranes (Homo sapiens, UniProt P32246)
T1 sequence (P32246 1-355): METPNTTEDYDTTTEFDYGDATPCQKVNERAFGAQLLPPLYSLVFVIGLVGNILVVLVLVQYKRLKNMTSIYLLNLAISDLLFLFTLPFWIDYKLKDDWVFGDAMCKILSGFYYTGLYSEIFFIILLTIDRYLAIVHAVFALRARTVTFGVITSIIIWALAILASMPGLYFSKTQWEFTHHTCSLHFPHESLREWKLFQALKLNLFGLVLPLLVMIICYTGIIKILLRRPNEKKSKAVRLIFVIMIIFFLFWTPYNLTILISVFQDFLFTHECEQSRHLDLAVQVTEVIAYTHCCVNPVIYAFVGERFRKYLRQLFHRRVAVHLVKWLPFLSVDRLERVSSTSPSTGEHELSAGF
Test: Receptor binding assay, 125I-RANTES or 125I-MIP-1α binding to THP-1 cell membranes
Details: not given
Method: Membranes were prepared from THP-1 cells (ATCC #TIB202). Cells were harvested by centrifugation, washed twice with PBS (phosphate-buffered saline), and the cell pellets were frozen at −70 to −85° C. […] This procedure results in cell lysis. The suspension was mixed well to resuspend all of the frozen cell pellet. Nuclei and cell debris were removed by centrifugation of 400×g for 10 minutes at 4° C. The supernatant was transferred to a fresh tube and the membrane fragments were collected by centrifugation at 25,000×g for 30 minutes at 4° C. The supernatant was aspirated and the pellet was resuspended in freezing buffer consisting of 10 mM HEPES pH 7.5, 300 mM sucrose, 1 μg/ml each aprotinin, leupeptin, and chymostatin, and 10 μg/ml PMSF (approximately 0.1 ml per each 10^8 cells). All clumps were resolved using a minihomogenizer, and the total protein concentration was determined using a protein assay kit (Bio-Rad, Hercules, Calif., cat #500-0002). The membrane solution was then aliquoted and frozen at −70 to −85° C. until needed. Binding Assays utilized the membranes described above. […] The binding reactions were terminated by harvesting the membranes by rapid filtration through glass fiber filters (GF/B or GF/C, Packard) which were presoaked in 0.3% polyethyleneimine. The filters were rinsed with approximately 600 μl of binding buffer containing 0.5 M NaCl, dried, and the amount of bound radioactivity was determined by scintillation counting in a Topcount beta-plate counter.

Row | Structure (SMILES) | IC50
1 | N#CC1(CCCN2CCC(O)(c3ccc(Cl)cc3)CC2)c2ccccc2C[S+]([O-])c2ccccc21 (single isomer, unassigned) [Example 14, 4-(4-Chlorophenyl)-1-[3-(11-cyano-6,11-dihydro-5-oxodibenzo[b,e]thiepin-11-yl)propyl]piperidin-4-ol] | < 1000 nM
2 | N#CC1(CCCN2CCC(O)(c3ccc(Cl)cc3)CC2)c2ccccc2CCc2ccccc21 [Example 2, 4-(4-Chlorophenyl)-1-[3-(5-cyano-10,11-dihydro-5H-dibenzo[a,d]cycloheptene-5-yl)propyl]piperidin-4-ol] | < 1000 nM
3 | N#CC1(CCCN2CCC(O)(c3ccc(Cl)cc3)CC2)c2ccccc2CSc2ccccc21 (centres unmarked) [Example 10, 4-(4-Chlorophenyl)-1-[3-(11-cyano-6,11-dihydrodibenzo[b,e]thiepin-11-yl)propyl]piperidin-4-ol] | < 1000 nM
4 | O=C(NCC1(CCCN2CCC(O)(c3ccc(Cl)cc3)CC2)c2ccccc2CSc2ccccc21)Oc1ccccc1 (centres unmarked) [Example 22, Phenyl N-[11-[3-(4-(4-chlorophenyl)-4-hydroxypiperidino)propyl]-6,11-dihydrodibenzo[b,e]thiepin-11-yl)methyl Carbamate] | < 1000 nM
5 | O=C(CCN1CCC(O)(c2ccc(Cl)cc2)CC1)C1c2ccccc2CCc2ccccc21 [Example 24, 4-(4-Chlorophenyl)-1-[3-(10,11-dihydro-5H-dibenzo[a,d]cycloheptene-5-yl)-3-propioyl]piperidin-4-ol] | < 1000 nM

Same assay, conditions: 125I-RANTES or 125I-MIP-1α as ligand; THP-1 cell membranes; 60 min at room temperature; read-out: IC50 (inhibitor concentration required for 50% inhibition of specific binding)

Row | Structure (SMILES) | IC50
6 | N#CC1(CCCN2CCC(O)(c3ccc(Cl)cc3)CC2)c2ccccc2C=Cc2ccccc21 [Example 1, 4-(4-Chlorophenyl)1-[3-(5-cyano-5H-dibenzo[a,d]cycloheptene-5-yl)propyl]piperidin-4-ol] | < 1000 nM
7 | N#CC1(CCCN2CCC(O)(c3ccc(Cl)cc3)CC2)c2ccccc2COc2ccccc21 (centres unmarked) [Example 3, 4-(4-Chlorophenyl)-1-[3-(11-cyano-6,11-dihydrodibenz[b,e]oxepin-11-yl)propyl]piperidin-4-ol] | < 1000 nM
8 | N#CC1(CCCN2CCC(O)(c3ccc(F)cc3)CC2)c2ccccc2COc2ccccc21 (centres unmarked) [Example 4, 1-[3-(11-Cyano-6,11-dihydrodibenz[b,e]oxepin-11-yl)propyl]-4-(4-fluorophenyl)piperidin-4-ol] | < 1000 nM
9 | N#CC1(CCCN2CCC(O)(c3ccc(Cl)cc3)CC2)c2ccccc2COc2ccc(F)cc21 (centres unmarked) [Example 5, 4-(4-Chlorophenyl)-1-[3-(11-cyano-6,11-dihydro-2-fluorodibenz[b,e]oxepin-11-yl)propyl]piperidin-4-ol] | < 1000 nM
10 | N#CC1(CCCN2CCC(O)(c3ccc(Cl)cc3)CC2)c2ccccc2COc2ccc(Br)cc21 (centres unmarked) [Example 6, 1-[3-(2-Bromo-11-cyano-6,11-dihydrodibenz[b,e]oxepin-11-yl)propyl]-4-(4-chlorophenyl)piperidin-4-ol] | < 1000 nM
11 | Cc1ccc2c(c1)C(C#N)(CCCN1CCC(O)(c3ccc(Cl)cc3)CC1)c1ccccc1CO2 (centres unmarked) [Example 7, 4-(4-Chlorophenyl)-1-[3-(11-cyano-6,11-dihydro-2-methyldibenz[b,e]oxepin-11-yl)propyl]piperidin-4-ol] | < 1000 nM
12 | N#CC1(CCCN2CCC(O)(c3ccccc3)CC2)c2ccccc2CSc2ccccc21 (centres unmarked) [Example 11, 1-[3-(11-Cyano-6,11-dihydrodibenzo[b,e]thiepin-11-yl)propyl]-4-phenylpiperidin-4-ol] | < 100000 nM
13 | N#CC1(CCCN2CCC(O)(c3ccc(Br)cc3)CC2)c2ccccc2CSc2ccccc21 (centres unmarked) [Example 12, 4-(4-Bromophenyl)-1-[3-(11-cyano-6,11-dihydrodibenzo[b,e]thiepin-11-yl)propyl]piperidin-4-ol] | < 1000 nM
14 | N#CC1(CCCN2CCC(O)(c3ccc(Cl)cc3)CC2)c2ccccc2CSc2ccc(Br)cc21 (centres unmarked) [Example 13, 1-[3-(2-Bromo-11-cyano-6,11-dihydrodibenzo[b,e]thiepin-11-yl)propyl]-4-(4-chlorophenyl)piperidin-4-ol] | < 1000 nM
15 | N#CC1(CCCN2CCC(O)(c3ccc(Cl)cc3)CC2)c2ccccc2CS(=O)(=O)c2ccccc21 (centres unmarked) [Example 16, 4-(4-Chlorophenyl)-1-[3-(11-cyano-6,11-dihydro-5,5-dioxodibenzo[b,e]thiepin-11-yl)propyl]piperidin-4-ol] | < 1000 nM
16 | OC1(c2ccc(Cl)cc2)CCN(CCCC2c3ccccc3CSc3ccccc32)CC1 (centres unmarked) [Example 17, 4-(4-Chlorophenyl)-1-[3-(6,11-dihydrodibenzo[b,e]thiepin-11-yl)propyl]piperidin-4-ol] | < 1000 nM
17 | OC1(c2ccc(Cl)cc2)CCN(CCCC2c3ccccc3CCc3ccccc32)CC1 [Example 18, 4-(4-Chlorophenyl)-1-[3-(10,11-dihydro-5H-dibenzo[a,d]cycloheptene-5-yl)propyl]piperidin-4-ol] | < 1000 nM
18 | OC1(c2ccc(Cl)cc2)CCN(CCCC2c3ccccc3COc3ccccc32)CC1 (centres unmarked) [Example 19, 4-(4-Chlorophenyl)-1-[3-(6,11-dihydrodibenz[b,e]oxepin-11-yl)propyl]piperidin-4-ol] | < 1000 nM
19 | O=C(NCCCO)NCC1(CCCN2CCC(O)(c3ccc(Cl)cc3)CC2)c2ccccc2CSc2ccccc21 (centres unmarked) [Example 23, 1-[11-[3-(4-(4-chlorophenyl)-4-hydroxypiperidino)propyl]-6,11-dihydrodibenzo[b,e]thiepin-11-yl]methyl-8-(3-hydroxypropyl)urea] | < 10000 nM

Same assay, conditions: read-out: IC50 (inhibitor concentration required for 50% inhibition of specific binding); 125I-RANTES or 125I-MIP-1α as ligand; THP-1 cell membranes; 60 min at room temperature

Row | Structure (SMILES) | IC50
20 | N#CC1(CCCN2CCC(O)(c3ccc(Cl)cc3)CC2)c2ccccc2C[S+]([O-])c2ccccc21 (single isomer, unassigned) [Example 15, 4-(4-Chlorophenyl)-1-[3-(11-cyano-6,11-dihydro-5-oxodibenzo[b,e]thiepin-11-yl)propyl]piperidin-4-ol] | < 1000 nM
